From patent US10172868B2, “Substituted quinazolines for inhibiting kinase activity” (NeuPharma, Inc., priority 2013, dated 2019)

What was measured:
[1] = system: HCC827 cells; test: cells; details: Homo sapiens, HCC827, 72 h, read-out: IC50 in HCC827 cells
[2] = target: FGFR1 (Homo sapiens (Human), UniProt P11362); test: Z'-LYTE kinase inhibition assay, FGFR1; type: biochemical; details: compound at 0.041 μM; read-out: % inhibition against FGFR1
Description: Inhibitory activities of compounds against BTK, EGFR and EGFR mutants (EGFR L858R, EGFR T790M, EGFR L858R/T790M), FGFR1, FGFR2, JAK2, JAK3 and KDR were measured by Invitrogen using Z'-LYTE® Method as briefly described in the following.
Test Compounds are screened in 1% DMSO (final) in the well. For 10 point titrations, 3-fold serial dilutions are conducted from the starting concentration. All ATP Solutions are diluted to a 4× working concentration in Kinase Buffer (50 mM HEPES pH 7.5, 0.01% BRIJ-35, 10 mM MgCl2, 1 mM EGTA). Peptide/Kinase Mixtures are diluted to a 2× working concentration in the appropriate Kinase Buffers as described below.
(v) Peptide/Kinase Mixtures for Measurement of FGFR1:
The 2×FGFR1/Tyr 04 mixture is prepared in 50 mM HEPES pH 7.5, 0.01% BRIJ-35, 10 mM MgCl2, 4 mM MnCl2, 1 mM EGTA, 2 mM DTT. The final 10 μL Kinase Reaction consists of 0.41-3.5 ng FGFR1 and 2 μM Tyr 04 in 50 mM HEPES pH 7.5, 0.01% BRIJ-35, 10 mM MgCl2, 2 mM MnCl2, 1 mM EGTA, 1 mM DTT. After the 1 hour Kinase Reaction incubation, 5 μL of a 1:64 dilution of Development Reagent B is added.
Reaction starts by 30-second shaking of mixture consisting of 2.5 μL 4× test compound, […] 2× kinase reaction mixture and 2.5 μL 4×ATP Solution on Bar-coded Corning, low volume NBS, black 384-well plate (Corning Cat. #3676). Then the mixture is incubated for 60-minute at room temperature for the kinase reaction, followed by addition of 5 μL of a 1:1024 dilution of development reagent A and 30-second plate shake. The mixture is then incubated for another 60-minute at room temperature for development reaction. Finally fluorescence is read by plate reader.
To determine IC50 of a compound against EGFR, EGFR mutant and other kinases, a series of concentrations of the compound were tested for the inhibition. […] The scale utilized in Table 4 is as follows: +++ less than 100 nM, ++ 100-500 nM and + greater than 500 nM.

[3] = system: H1975 cells; test: Inhibition of cancer cell growth, MTT assay, H1975; details: Homo sapiens, NCI-H1975, 72 h, read-out: IC50 in H1975 cells
[4] = target: EGFR (ErbB1) T790M L858R (Homo sapiens (Human), UniProt P00533, L858R/T790M); test: Z'-LYTE kinase inhibition assay, EGFR L858R/T790M; type: biochemical; details: for inhibition at 1 µM: read-out: % inhibition against EGFR L858R/T790M (Compound at 1 μM); for inhibition at 0.0137 µM: read-out: % inhibition against EGFR L858R/T790M (Compound at 0.0137 μM); for IC50: read-out: IC50 against EGFR L858R/T790M
Procedure, shortened: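 IC50 taken from 10-point, 3-fold serial dilutions tested in 1% DMSO. The mutant kinase and peptide were prepared in HEPES pH 6.5 buffer with BRIJ-35, MgCl2, EGTA and NaN3, then reacted with ATP for 1 h at room temperature. Development reagent was added for a further hour before the fluorescence readout.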

[5] = target: EGFR (ErbB1) (Homo sapiens (Human), UniProt P00533); test: Z'-LYTE kinase inhibition assay, EGFR; type: biochemical; details: for inhibition at 0.041 µM: read-out: % inhibition against EGFR (Compound at 0.041 μM); for IC50: read-out: IC50 against EGFR
Procedure, shortened: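 IC50 values derived from 10-point, 3-fold compound dilution series (1% DMSO final) using Z'-LYTE fluorescence readout after 60-min development. Reaction: EGFR (1.1-5.25 ng) with 2 μM peptide, 60 min at room temperature in HEPES pH 7.5 buffer containing MgCl2, MnCl2, EGTA, DTT and BRIJ-35.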

[6] = system: A431 cells; test: cells; details: Homo sapiens, A-431, 72 h, read-out: IC50 in A431 cells
[7] = system: H3255 cells; test: Inhibition of cancer cell growth, MTT assay, H3255; details: Homo sapiens, NCI-H3255, 72 h, read-out: IC50 in H3255 cells
Description: Inhibition of cell growth by compounds was measured using MTT assay (Mosmann, T., Journal of Immunological Methods, 1983, 65, 55-63). Tumor cell lines were purchased from ATCC (American Type Culture Collection, Manassas, Va.). All cell lines were maintained in RPMI 1640 (Hyclone) supplemented with 10% fetal bovine serum (FBS, Hyclone), glutamine (2 mM, Hyclone), and antibiotics (penicillin 100 U/mL and streptomycin 50 μg/mL) at 37° C. in a humidified atmosphere of 5% CO2 in air. Taxol (as a positive control. Sigma) and compounds were dissolved in DMSO (Sigma), and the final concentration of DMSO in the medium was 1%. Tumor cells were plated in 96-well plates at densities of about 4000 cells/well of a 96-well plate and allowed to adhere/grow for 24 h. They were then treated with various concentrations of drug for 72 h, 3-(4,5-Dimethylthiazol-2-yl)-2,5-diphenyltetrazolium bromide (MTT, Sigma) was used to determine the number of viable cells at the time of compound addition and the number of cells remaining after 72 h compound exposure. The number of cells remaining after 72 h was compared to the number of viable cells at the time of compound addition by measuring the absorbance at 570 nm, allowing for the calculation of growth inhibition.
All concentrations of compounds were tested in triplicate and controls were averaged over 4 wells. IC50 was calculated by plotting the concentration of compound vs the percentage of inhibition in treated wells using GraphPad Prism 5.

[8] = system: H1975 tumor xenografts; test: Inhibition of tumor growth in H1975 xenograft model; type: in vivo, BALB/c female nude mice; details: QD x 14; for Tumor Volume Pre-treatment: baseline before treatment
Description: H1975 cells were implanted in BALB/c female nude mice and grown as tumor xenografts. When tumors achieved 120-200 mm^3, mice were assigned into treatment and control groups using randomized block design based upon their tumor volumes. Each group contained 6 tumor-bearing mice. Tumors were measured twice weekly in two dimensions using a caliper, and the tumor volume was calculated from two-dimensional measurements using the equation V=0.5×a×b^2 where a and b are the long and short diameters of the tumor, respectively. Relative tumor volume (RTV) was defined as TVt/TVi, the ratio of the volume on a given day (TVt) and the volume at the start of treatment (TVi). Relative tumor growth rate (T/C) was defined as RTVT/RTVC, the ratio of relative tumor volume of treatment group (RTVT) and relative tumor volume of control group (RTVC) on a given day.

[9] = target: BTK (Homo sapiens (Human), UniProt Q06187); test: Z'-LYTE kinase inhibition assay, BTK; type: biochemical; details: read-out: IC50 against BTK
Procedure, shortened: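 Z'-LYTE FRET assay with Tyr 01 peptide in 50 mM HEPES pH 7.5, 10 mM MgCl2, 1 mM EGTA, 0.01% BRIJ-35. Compounds in 1% DMSO were tested as 10-point, 3-fold titrations.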

[10] = 30 mg/kg, Intraperitoneal injection

Sequence of FGFR1 (P11362 22-822): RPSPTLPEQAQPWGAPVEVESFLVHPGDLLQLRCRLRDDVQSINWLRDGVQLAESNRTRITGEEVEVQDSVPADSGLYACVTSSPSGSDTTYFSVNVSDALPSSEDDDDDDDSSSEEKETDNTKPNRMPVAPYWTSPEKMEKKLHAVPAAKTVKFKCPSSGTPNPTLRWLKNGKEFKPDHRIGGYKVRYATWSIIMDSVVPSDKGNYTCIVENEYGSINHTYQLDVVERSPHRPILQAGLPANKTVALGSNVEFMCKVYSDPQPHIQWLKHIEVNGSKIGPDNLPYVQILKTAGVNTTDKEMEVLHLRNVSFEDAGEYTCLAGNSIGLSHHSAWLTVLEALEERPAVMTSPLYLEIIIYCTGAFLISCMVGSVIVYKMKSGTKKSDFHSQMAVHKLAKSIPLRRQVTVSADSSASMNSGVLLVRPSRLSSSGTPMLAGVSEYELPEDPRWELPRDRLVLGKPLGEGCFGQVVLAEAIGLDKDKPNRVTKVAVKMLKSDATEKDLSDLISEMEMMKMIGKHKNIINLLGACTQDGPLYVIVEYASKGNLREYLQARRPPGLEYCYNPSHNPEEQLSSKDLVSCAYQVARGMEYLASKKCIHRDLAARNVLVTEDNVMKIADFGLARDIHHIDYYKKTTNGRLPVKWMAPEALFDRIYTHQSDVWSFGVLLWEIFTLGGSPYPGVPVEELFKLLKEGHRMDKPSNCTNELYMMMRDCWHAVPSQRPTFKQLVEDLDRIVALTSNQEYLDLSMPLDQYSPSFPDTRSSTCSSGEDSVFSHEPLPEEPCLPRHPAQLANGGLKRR
Sequence of EGFR (ErbB1) (P00533 25-1210): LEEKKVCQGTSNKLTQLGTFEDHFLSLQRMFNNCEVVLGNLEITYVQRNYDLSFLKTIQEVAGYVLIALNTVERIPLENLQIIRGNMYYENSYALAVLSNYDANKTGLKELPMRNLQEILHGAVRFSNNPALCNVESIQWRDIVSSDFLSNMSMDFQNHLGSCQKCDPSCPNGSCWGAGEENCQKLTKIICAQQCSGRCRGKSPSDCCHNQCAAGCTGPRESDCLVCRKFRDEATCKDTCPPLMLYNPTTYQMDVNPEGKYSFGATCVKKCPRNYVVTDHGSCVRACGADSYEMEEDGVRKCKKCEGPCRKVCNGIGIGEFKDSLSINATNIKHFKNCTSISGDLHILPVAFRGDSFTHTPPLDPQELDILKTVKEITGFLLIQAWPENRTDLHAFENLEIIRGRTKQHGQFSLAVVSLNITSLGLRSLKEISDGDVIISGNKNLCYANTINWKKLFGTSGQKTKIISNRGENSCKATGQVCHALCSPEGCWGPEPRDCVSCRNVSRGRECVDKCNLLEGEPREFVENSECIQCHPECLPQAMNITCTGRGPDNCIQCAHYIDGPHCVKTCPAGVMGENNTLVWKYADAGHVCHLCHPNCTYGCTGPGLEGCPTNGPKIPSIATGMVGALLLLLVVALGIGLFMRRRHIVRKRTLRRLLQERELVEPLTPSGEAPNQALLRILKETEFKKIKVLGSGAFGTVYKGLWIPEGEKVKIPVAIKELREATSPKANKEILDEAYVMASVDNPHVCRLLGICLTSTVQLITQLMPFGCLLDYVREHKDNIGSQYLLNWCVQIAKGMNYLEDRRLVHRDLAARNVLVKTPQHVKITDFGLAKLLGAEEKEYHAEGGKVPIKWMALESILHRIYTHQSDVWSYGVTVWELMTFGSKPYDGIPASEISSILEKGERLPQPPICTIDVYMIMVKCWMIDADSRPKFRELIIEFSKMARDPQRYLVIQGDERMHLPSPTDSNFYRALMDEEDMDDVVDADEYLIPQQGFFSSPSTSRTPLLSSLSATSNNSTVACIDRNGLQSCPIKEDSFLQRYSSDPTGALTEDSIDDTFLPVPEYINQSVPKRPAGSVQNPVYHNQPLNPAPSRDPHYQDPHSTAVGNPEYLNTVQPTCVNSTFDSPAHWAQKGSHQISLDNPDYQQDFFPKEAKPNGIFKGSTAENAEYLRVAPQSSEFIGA
Sequence of BTK (Q06187 whole entry): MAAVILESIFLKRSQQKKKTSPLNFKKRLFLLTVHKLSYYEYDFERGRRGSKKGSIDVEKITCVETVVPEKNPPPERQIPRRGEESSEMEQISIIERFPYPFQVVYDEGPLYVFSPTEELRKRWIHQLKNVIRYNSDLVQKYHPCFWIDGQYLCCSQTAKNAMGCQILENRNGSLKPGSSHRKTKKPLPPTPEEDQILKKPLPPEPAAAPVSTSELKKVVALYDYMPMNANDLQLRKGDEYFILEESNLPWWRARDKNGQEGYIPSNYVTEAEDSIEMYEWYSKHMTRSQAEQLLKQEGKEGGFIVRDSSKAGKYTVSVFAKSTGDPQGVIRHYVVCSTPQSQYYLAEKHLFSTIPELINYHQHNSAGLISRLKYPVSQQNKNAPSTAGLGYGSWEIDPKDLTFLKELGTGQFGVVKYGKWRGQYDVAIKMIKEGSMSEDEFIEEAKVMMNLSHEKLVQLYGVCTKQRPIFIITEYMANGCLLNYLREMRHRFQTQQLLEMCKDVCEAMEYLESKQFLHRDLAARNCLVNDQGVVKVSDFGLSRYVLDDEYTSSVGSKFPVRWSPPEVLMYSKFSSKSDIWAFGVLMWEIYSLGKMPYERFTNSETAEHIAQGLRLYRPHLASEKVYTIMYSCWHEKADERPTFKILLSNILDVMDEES
Sequence of EGFR (ErbB1) T790M L858R (P00533 25-1210 T790M/L858R): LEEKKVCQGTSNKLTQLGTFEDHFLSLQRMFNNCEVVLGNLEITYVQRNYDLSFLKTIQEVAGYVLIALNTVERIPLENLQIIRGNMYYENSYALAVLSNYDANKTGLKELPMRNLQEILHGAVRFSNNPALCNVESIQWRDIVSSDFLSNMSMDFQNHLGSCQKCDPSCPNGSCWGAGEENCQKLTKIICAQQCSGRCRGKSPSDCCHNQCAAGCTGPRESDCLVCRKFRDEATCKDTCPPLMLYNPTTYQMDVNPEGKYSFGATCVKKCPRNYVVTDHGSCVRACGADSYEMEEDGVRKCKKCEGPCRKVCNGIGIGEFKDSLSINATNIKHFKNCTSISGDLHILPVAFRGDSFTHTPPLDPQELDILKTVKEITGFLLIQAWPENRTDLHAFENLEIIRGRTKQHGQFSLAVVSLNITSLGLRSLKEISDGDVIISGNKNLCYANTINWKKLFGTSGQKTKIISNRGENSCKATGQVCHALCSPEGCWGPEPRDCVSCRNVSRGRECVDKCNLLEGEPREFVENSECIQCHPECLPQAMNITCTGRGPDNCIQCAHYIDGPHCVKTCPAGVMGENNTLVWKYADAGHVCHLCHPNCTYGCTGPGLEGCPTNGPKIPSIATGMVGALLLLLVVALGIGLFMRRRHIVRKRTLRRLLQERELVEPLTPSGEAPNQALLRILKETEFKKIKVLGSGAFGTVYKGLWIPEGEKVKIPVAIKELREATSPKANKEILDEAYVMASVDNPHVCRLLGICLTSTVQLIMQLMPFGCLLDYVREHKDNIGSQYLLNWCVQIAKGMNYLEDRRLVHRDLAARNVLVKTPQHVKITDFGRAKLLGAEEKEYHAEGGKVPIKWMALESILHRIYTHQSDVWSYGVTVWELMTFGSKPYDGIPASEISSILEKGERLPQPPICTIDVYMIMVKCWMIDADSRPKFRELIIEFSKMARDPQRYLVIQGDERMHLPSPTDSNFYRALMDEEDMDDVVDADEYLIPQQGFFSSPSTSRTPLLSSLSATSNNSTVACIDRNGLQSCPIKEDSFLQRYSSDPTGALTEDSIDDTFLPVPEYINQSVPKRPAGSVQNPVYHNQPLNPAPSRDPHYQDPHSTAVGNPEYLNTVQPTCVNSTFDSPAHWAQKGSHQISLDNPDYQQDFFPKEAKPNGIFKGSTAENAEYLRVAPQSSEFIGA

Structure (SMILES)	IC50 [1] [nM]	inhibition at 0.041 µM [2] [%]	IC50 [3] [nM]	inhibition at 1 µM [4] [%]	inhibition at 1 µM ([5]; read-out: % inhibition against EGFR (Compound at 1 μM)) [%]	inhibition at 0.041 µM [5] [%]	inhibition at 0.0137 µM [4] [%]	IC50 [6] [nM]	IC50 [4] [nM]	IC50 [7] [nM]	T/C (relative tumor growth rate) [8, 10] [%]	Tumor Volume Post-treatment [8, 10] [mm^3]	Tumor Volume Pre-treatment [8, 10] [mm^3]	IC50 [5] [nM]	IC50 [9] [nM]	T/C (relative tumor growth rate) ([8]; Table 7 study, 60 mg/kg, Oral) [%]	Tumor Volume Post-treatment ([8]; Table 7 study, 60 mg/kg, Oral) [mm3]	Tumor Volume Pre-treatment ([8]; Table 7 study, 60 mg/kg, Oral) [mm3]
CCC(=O)Nc1cccc(-c2cccc3cnc(Nc4ccc(N5CCN(C)CC5)cc4)nc23)c1 [Example C020, N-(3-(2-((4-(4-methylpiperazin-1-yl)phenyl)amino)quinazolin-8-yl)phenyl)propionamide]	> 500	> 50	> 500	> 50														
Clc1cccc(-c2cccc3cnc(Nc4ccc(N5CCNCC5)cc4)nc23)c1 [Example C025, 8-(3-chlorophenyl)-N-(4-(piperazin-1-yl)phenyl)quinazolin-2-amine]	> 500	> 50	> 500	> 50														
Fc1cccc(-c2cccc3cnc(Nc4ccc(N5CCNCC5)cc4)nc23)c1 [Example C027, 8-(3-fluorophenyl)-N-(4-(piperazin-1-yl)phenyl)quinazolin-2-amine]	100 to 500	> 50	> 500	> 50														
Fc1ccccc1-c1cccc2cnc(Nc3ccc(N4CCNCC4)cc3)nc12 [Example C031, 8-(2-fluorophenyl)-N-(4-(piperazin-1-yl)phenyl)quinazolin-2-amine]	> 500	> 50	> 500	> 50	> 50													
C=CC(=O)Nc1cccc(-c2cccc3cnc(Nc4ccc(N5CCN(C(C)=O)CC5)cc4)nc23)c1Cl [Example C051, N-(3-(2-((4-(4-acetylpiperazin-1-yl)phenyl)amino)quinazolin-8-yl)-2-chlorophenyl)acrylamide]		< 50	100 to 500			< 50	> 50	> 500										
C=CC(=O)Nc1cccc(-c2cccc3cnc(Nc4ccc(N5CCN(C)CC5)c(OC)c4)nc23)c1 [Example C075, N-(3-(2-((3-methoxy-4-(4-methylpiperazin-1-yl)phenyl)amino)quinazolin-8-yl)phenyl)acrylamide]		> 50	< 100			> 50	> 50	100 to 500	< 100									
C=CC(=O)Nc1cccc(-c2cccc3cnc(Nc4ccc(NC5CN(CCF)C5)cc4)nc23)c1 [Example C103, N-(3-(2-((4-((1-(2-fluoroethyl)azetidin-3-yl)amino)phenyl)amino)quinazolin-8-yl)phenyl)acrylamide]			< 100			< 50	> 50	< 100	< 100	100 to 500	35.8	748.7	150.9					
C=CC(=O)Nc1cccc(-c2cccc3cnc(Nc4ccc(OCCOC)cc4)nc23)c1 [Example C107, N-(3-(2-((4-(2-methoxyethoxy)phenyl)amino)quinazolin-8-yl)phenyl)acrylamide]			< 100					< 100	< 100	100 to 500	63.6	1341.7	150.6	> 500	< 100			
C=CC(=O)Nc1cccc(-c2cccc3cnc(Nc4ccc(N5CCN(CCO)CC5)cc4F)nc23)c1 [Example C147, N-(3-(2-((2-fluoro-4-(4-(2-hydroxyethyl)piperazin-1-yl)phenyl)amino)quinazolin-8-yl)phenyl)acrylamide]	< 100		< 100			< 50		100 to 500	< 100	> 500				< 100	< 100	55.7	898	240
C=CC(=O)Nc1cccc(-c2cccc3cnc(Nc4ccc(N5CCN(CCO)CC5)c(F)c4F)nc23)c1 [Example C151, N-(3-(2-((2,3-difluoro-4-(4-(2-hydroxyethyl)piperazin-1-yl)phenyl)amino)quinazolin-8-yl)phenyl)acrylamide]	< 100		< 100			< 50		100 to 500	< 100	> 500				< 100	< 100	28.6	462	229
C=CC(=O)Nc1cccc(-c2cccc3cnc(Nc4ccc(N5CCN(C)CC5)c(F)c4F)nc23)c1 [Example C156, N-(3-(2-((2,3-difluoro-4-(4-methylpiperazin-1-yl)phenyl)amino)quinazolin-8-yl)phenyl)acrylamide]	< 100		< 100					100 to 500	< 100	> 500				< 100		36.8	594	232
